Assay results taken from patent US9981929B2, “Method for prevention of premature polymerization” (NITTO BELGIUM NV, priority 2015, dated 2018).

Tests used:
[1] = Kugelrohr distillation (purification) of SMA in the presence of the inhibitors; conditions: 500 ppm inhibitor, 10 g SMA, kugelrohr 240 °C, about 0.2 mbar; visual viscosity increase
Experimental: The temperature of the kugelrohr is set to 240° C. The distillation starts when the vacuum reached about 0.2 mbar. Polymerization in the rotating pitch is evaluated by visually determining increased viscosity.
The inhibitors were added as such to the SMA prior to the distillation, no methanolic solution as described earlier is used.

[2] = Synthesis of SMA via transesterification in the presence of the inhibitors; conditions: 500 ppm inhibitor
Experimental: SMA is prepared via transesterification in the presence of the indicated inhibitors. A two-neck flask, equipped with a Dean-Stark apparatus and a reflux condenser, is charged with three equivalents of methyl methacrylate, one equivalent of stearyl/palmityl alcohol and 500 ppm of inhibitor. Air is bubbled through the solution using a needle, septum and vacuum pump, set at 900 mbar.
The methyl methacrylate/methanol azeotrope is collected and at the end of the reaction any remaining methyl methacrylate is removed under reduced pressure at the rotavapor.

[3] = end of reaction after removal of methanol and excess methyl methacrylate

Row | Structure (SMILES) | Polymerization [1] | Properties end (color of the reaction mixture) [2, 3] | Properties start (color of the reaction mixture) ([2]; start of reaction) | Properties end (precipitate / solubility of catalyst/inhibitor) [2, 3] | Properties start (solubility of catalyst/inhibitor) ([2]; start of reaction)
1 | CCCCCCCCS(=O)(=O)[O-].CN(C)c1ccc2nc3ccc(N(C)C)cc3[s+]c2c1.[Cl-].[Na+] [Inhibitor I-1a] | no |  |  |  | 
2 | CCCCCCCCS(=O)(=O)[O-].CN(C)c1ccc2nc3ccc(N(C)C)cc3[s+]c2c1 [Inhibitor I-1, octanesulfonate salt of methylene blue] | no |  |  |  | 
3 | CC(C)(C)c1cc(OCCCS(=O)(=O)[O-])c(C(C)(C)C)cc1O.CN(C)c1ccc2nc3ccc(N(C)C)cc3[s+]c2c1 [Inhibitor I-4] | no | purple liquid | deep purple solution |  | 
4 | CN(C)c1ccc2nc3ccc(=[N+](C)C)cc-3sc2c1 [MB, methylene blue] |  | brown liquid | dark blue solution |  | 
5 | CCCCCCCCCCCCCCCCS(=O)(=O)[O-].CN(C)c1ccc2nc3ccc(N(C)C)cc3[s+]c2c1.[Cl-].[Na+] [Inhibitor I-2a] | no | brown liquid very | dark blue solution |  | 
6 | COc1ccc(O)cc1 [MeHQ, 4-methoxyphenol] |  | yellow liquid white | colorless solution | precipitate (catalyst) | homogeneous
